This is an account of results in US20070060599A1, “Crystalline forms of [1S-(1alpha, 3alpha, 4beta)]-2-amino-1,9-dihydro-9-[4-hydroxy-3-(hydroxymethyl)-2-methylenecyclopentyl]-6H-purin-6-one” (priority 2005, published 2007).

The data set deals with hepatitis B virus infection. The data set is described as follows: once daily administration of low dose entecavir pharmaceutical compositions to treat hepatitis B virus infection. The class given is in vivo, human. The method, then: In a yet another aspect, the invention provides pharmaceutical compositions comprising Form N-2 and/or Form IP.3-4 crystals of [1S-(1α,3α,4β)]-2-amino-1,9-dihydro-9-[4-hydroxy-3-(hydroxymethyl)-2-methylenecyclopentyl]-6H-purin-6-one and at least one pharmaceutically acceptable carrier or excipient. The pharmaceutical compositions may contain a low dose of from about 0.001 mg to about 25 mg of the active drug ingredient for once daily administration to treat hepatitis B virus infection in an adult human patient or a pediatric patient. Preferred pharmaceutical compositions contain from about 0.01 mg to about 10 mg of the active drug ingredient and most preferred pharmaceutical compositions contain from about 0.01 to about 5 mg of the active drug ingredient. Such preferred and most preferred pharmaceutical compositions are also administered once daily to treat hepatitis B virus infection in an adult or a pediatric patient.

On to `C=C1[C@H](CO)[C@@H](O)C[C@@H]1n1cnc2c(=O)[nH]c(N)nc21` [entecavir, [1S-(1α,3α,4β)]-2-amino-1,9-dihydro-9-[4-hydroxy-3-(hydroxymethyl)-2-methylenecyclopentyl]-6H-purin-6-one monohydrate], for which the “effectiveness in treating hepatitis B virus infection” value is “effective”. Also, where the note is “compared with the high dose regimen of U.S. Pat. No. 5,206,244”, the undesirable side effects result is reported as “without undesirable side effects”.
